Data reported in patent US20050020576A1, “Kappa agonist compounds and pharmaceutical formulations thereof” (priority 1996, published 2005).
Where a name gives a salt, the structure may show the parent alone. Read-outs that look alike come from different tables or passages of the source.

Biological target: cloned human kappa receptor (Homo sapiens, UniProt P41145)
Assay: biochemical
Format: binding
Set-up: (3H)-Diprenorphin, % / k [3H] Diprenorphin, %: dose or concentration left out as unconfirmed

Sequence of cloned human kappa receptor (P41145 whole entry): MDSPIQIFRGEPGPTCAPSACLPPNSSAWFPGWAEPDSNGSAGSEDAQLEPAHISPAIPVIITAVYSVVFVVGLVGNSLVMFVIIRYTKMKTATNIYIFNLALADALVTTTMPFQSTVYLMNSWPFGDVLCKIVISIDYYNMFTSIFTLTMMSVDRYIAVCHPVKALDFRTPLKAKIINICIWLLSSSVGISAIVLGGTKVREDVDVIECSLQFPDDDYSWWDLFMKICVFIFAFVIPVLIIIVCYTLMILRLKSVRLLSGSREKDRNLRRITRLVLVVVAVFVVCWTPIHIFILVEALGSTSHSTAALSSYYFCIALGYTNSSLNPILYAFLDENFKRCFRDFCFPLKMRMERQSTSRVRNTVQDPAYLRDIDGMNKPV

COC(=O)N1CCN(C(=O)Cc2ccc(C(F)(F)F)cc2)C(CN2CC[C@H](OC(=O)Cc3ccc(C(F)(F)F)cc3)C2)C1 (mixture of isomers) [Example 1j, Methyl-4-[(4-a,a,a-trifluoromethylphenyl)acetyl]-3-(R,S)-[3-(S)-(4′-α,α,α-trifluoro methylphenylacetate)-1-(pyrrolidinyl)methyl]-1-piperazinecarboxylate hydrochloride]
Ki (Ki, nM 3H-Diprenorphin): 13 nM

COC(=O)N1CCN(C(=O)Cc2ccc(C(F)(F)F)cc2N)C(CN2CCC[C@H]2CO)C1 (mixture of isomers) [Example 1p, Methyl-4-[(2-amino-4-α,α,α-trifluoromethylphenyl)acetyl]-3-(R,S)-[(2-(S)-pyrrolidinemethanol)methyl]-1-piperazinecarboxylate hydrochloride]
Ki (Ki, nM 3H-Diprenorphin): 11 nM

CC(=O)N1CCN(C(=O)Cc2ccc(S(C)(=O)=O)cc2)C(CN2CC[C@H](OC(=O)Cc3ccc(S(C)(=O)=O)cc3)C2)C1 (mixture of isomers) [Example 1u, 4-Acetyl-1-[(4-methylsulfonyl]phenyl)acetyl]-2-(R,S)-[3-(S)-(4′-methylsulfonylphenyl acetate)-1-(Pyrrolidinyl)methyl]piperazine hydrochloride]
Ki (Table IA, read-out: Ki(nM) (3H)-Diprenorphin): 1780 nM

COC(=O)N1CCN(C(=O)Cc2ccc(C(F)(F)F)cc2N(S(C)(=O)=O)S(C)(=O)=O)C(CN2CCCC2)C1 (racemic) [Example 1b, Methyl-4-[(2-[N,N-bis-methylsulfonamido]-4-trifluoromethyphenyl)acetyl]-3-(R,S)-[(1-pyrrolidinyl)-methyl]-1-piperazinecarboxylate dihydrochloride]
Ki (Ki, nM 3H-Diprenorphin): 7 nM

CNS(=O)(=O)c1ccc(CC(=O)N2CCN(C(=O)OC)CC2CN2CCCC2)cc1 (racemic) [Example 1f, Methyl-4-[-4-[N-methylamino)sulfamyl]phenyl)acetyl]-3-(R,S)-[(1-pyrrolidinyl)methyl]-1-piperazinecarboxylate hydrochloride]
Ki (Ki, nM 3H-Diprenorphin): 53.5 nM

CC(=O)N1CCN(C(=O)Cc2ccccn2)C(CN2CCCC2)C1.Cl (racemic) [Example 1gg, 4-Acetyl-1-[(2-pyridyl)acetyl]-2-(R,S)-[(1-pyrrolidinyl)methyl]piperazine hydrochloride]
(3H)-Diprenorphin, %: 27% @ 1 mM

Cl.O=CN1CCN(C(=O)Cc2ccccn2)C(CN2CCCC2)C1 (racemic) [Example 1hh, 4-Formyl-1-[(2-pyridyl)acetyl]-2-(R,S)-[(1-pyrrolidinyl)methyl]piperazine hydrochloride]
(3H)-Diprenorphin, %: 0% @ 1 mM

COc1cccc(C(CN2CCCC2)N(C)C(=O)Cc2ccccc2NS(C)(=O)=O)c1 (racemic) [Example 3uu, (R,S)-1-[2-(Methanesulfonylamino)phenyl-N-methylacetamido]-1-(3-methoxyphenyl)-2-(1-pyrrolidino)-ethane, methanesulfonic acid salt]
Ki (Ki (nM) [3H]-Diprenorphin κ): 17.5 nM

CN(C(=O)Cc1ccccc1NS(C)(=O)=O)C(CN1CCCC1)c1cccc(O)c1 (racemic) [Example 3vv, (R,S)-1-[2-(Methanesulfonylamino)phenyl-N-methylacetamido]-1-(3-hydroxyphenyl)-2-(1-pyrrolidino)-ethane, methanesulfonic acid salt]
Ki (Ki (nM) [3H]-Diprenorphin κ): 19.5 nM

CN(C(=O)Cc1ccc(C(F)(F)F)cc1NC(=O)/C=C\C(=O)O)C1CCCCC1N1CCCC1 (racemic) [Example 4b, (Z)-4-[2-((±)-trans-2-Amino-4-trifluoromethyl-N-methyl-N-[2-(1-pyrrolidinyl)-cyclohexyl]-phenylaetamido)]4-oxo-2-butenoic acid]
[3H]-Diprenorphin, % @ 1 μM: 22% @ 1 μM

CS(=O)(=O)N1CCN(C(=O)Cc2ccc(C(F)(F)F)cc2)C(CN2CC[C@H](OC(=O)Cc3ccc(C(F)(F)F)cc3)C2)C1 (stereo partly drawn) [Example 1mm, 4-Methylsulphonyl-1-[(4-α,α,α-triflouromethylphenyl)acetyl]-2-(R,S)-[3-(S)-(4′-α,α,α-triflouromethylphenyl acetate)-1-(pyrrolidinyl)methyl]piperazine hydrochloride]
Ki (Ki, nM 3H-Diprenorphin): 287 nM

CN(C(=O)Cc1ccccc1NC(=O)/C=C\C(=O)O)[C@H](CN1CCCC1)c1ccccc1 [Example 3aa, (Z)-4-[2-(2-Aminophenyl)-N-methyl-N-[(1S)-1-phenyl)-2-(1-pyrrolidinyl]-ethyl]acetamido]4-oxo-2-butenoic acid hemimaleate]
Ki (read-out: Ki (nM) [3H]-Diprenorphin κ): 5280 nM

CN(C(=O)Cc1ccc(C(F)(F)F)cc1NCC(=O)O)[C@H](CN1CCCC1)c1ccccc1 [Example 3b, N-[(4-Trifluoromethylphenyl)-N-methyl-N-{[1S]-1-phenyl-2-[1-pyrrolidinyl)]ethyl}acetamido]glycine hydrochloride]
Ki (Table IIIA, read-out: Ki (nM) [3H]-Diprenorphin κ): 464 nM

CN(C(=O)Cc1ccccc1NS(C)(=O)=O)[C@H](CN1CCCC1)c1cccc(NS(C)(=O)=O)c1 [Example 3pp, 2-(2-Methanesulfonamidophenyl)-N-methyl-N-[(1S)-1-(3-methanesulfon-amidophenyl)-2-(1-pyrrolidinyl)ethyl]acetamide Hydrochloride]
Ki (Ki (nM) [3H]-Diprenorphin κ): 4.6 nM

CC(C)C(=O)Nc1cccc([C@@H](CN2CCCC2)N(C)C(=O)Cc2ccccc2NC(=O)C(C)C)c1 [Example 3qq, 2-(2-Iso-butyramidophenyl)-N-methyl-N-[(1S)-1-(3-isobutyramido-phenyl)-2-(1-pyrrolidinyl)ethyl]acetamide Methanesulfonic acid salt]
Ki (Ki (nM) [3H]-Diprenorphin κ): 21 nM

COc1cc(CC(=O)N(C)[C@H](CN2CCCC2)c2ccccc2)c(S(=O)(=O)N(C)Cc2ccccc2)cc1OC [Example 3xx, 2-(2-N-Benzyl-2-N-methylsulfamoyl-3,4-dimethoxyphenyl)-N-methyl-N-[(1S)-1-phenyl-2-(1-pyrrolidinyl)ethyl]acetamide hydrochloride]
Ki (Ki (nM) [3H]-Diprenorphin κ): 0.83 nM

CCOC(=O)/C=C/C(=O)Nc1cc(Cl)c(Cl)cc1CC(=O)N(C)[C@H](CN1CCCC1)c1ccccc1 [Example 3y, (E) Ethyl 4-[2-(2-amino-4,5-dichlorophenyl)-N-methyl-N-[(1S)-1-phenyl)-2-[1-pyrrolidinyl]ethyl]acetamido]4-oxo-2-butenoate hydrochloride]
Ki (Ki (nM) [3H]-Diprenorphin κ): 0.35 nM

CN(C(=O)Cc1cc2c(cc1S(=O)(=O)N(C)Cc1ccccc1)OCO2)[C@H](CN1CCCC1)c1ccccc1 [Example 131, 2-[2-(N-Benzyl-N-methylsulfamoyl)-4,5-methylenedioxyphenyl]-N-methyl-N-[(1S)-1-phenyl-2-[(1-pyrrolidinyl)ethyl]]acetamide]
Ki (Ki (nM) [3H]-Diprenorphin κ): 0.22 nM

COc1cc(CC(=O)N(C)[C@H](CN2CC[C@H](O)C2)c2ccccc2)c(S(=O)(=O)N2CCCC2)cc1OC [Example 135, 2-[2-(N-Pyrrolidinesulfamoyl)-4,5-dimethoxyphenyl]-N-methyl-N-[(1S)-1-phenyl-2-[1-(3S)-(3-hydroxypyrrolidinyl)ethyl]]acetamide]
Ki (Ki (nM) [3H]-Diprenorphin κ): 0.66 nM

COc1cc(CC(=O)N(C)[C@H](CN2CC[C@H](O)C2)c2ccccc2)c(S(=O)(=O)N(C)C)cc1OC [Example 137, 2-[2-(N-Dimethylsulfamoyl)-4,5-dimethoxyphenyl]-N-methyl-N-[(1S)-1-phenyl-2-[1-(3S)-(3-hydroxypyrrolidinyl)ethyl]]acetamide]
Ki (read-out: Ki(nM) [3H]-Diprenorphin κ): 0.83 nM

COc1cc(CC(=O)N(C)[C@H](CN2CC[C@H](O)C2)c2ccccc2)c(S(=O)(=O)N2CCN(C)CC2)cc1OC [Example 139]
Ki (Ki (nM) [3H]-Diprenorphin κ): 4.2 nM

COc1cc(CC(=O)N(C)[C@H](CN2CCCC2)c2ccccc2)c(S(=O)(=O)N2CCOCC2)cc1OC [Example 140, 2-[2-N-(Morpholinesulfamoyl)-4,5-dimethoxyphenyl]-N-methyl-N-[(1S)-1-phenyl-2-[1-(pyrrolidinyl)ethyl]]acetamide]
Ki (Ki (nM) [3H]-Diprenorphin κ): 0.56 nM
